{"source": "the NIST ThermoML archive (doi:10.1016/j.tca.2012.05.036)", "key": {"[1]": {"assay": "relative permittivity at zero frequency (dimensionless); xn = mol fraction of the nth substance listed", "conditions": "101 kPa, Liquid, Parallel plate capacitor"}, "[2]": {"assay": "refractive index (Na D-line) (dimensionless); xn = mol fraction of the nth substance listed", "conditions": "101 kPa, Liquid, Standard Abbe refractometry"}}, "note": "± gives the expanded uncertainty stated by the source.", "data": [{"smiles": "CCCCCO", "note": "[pentan-1-ol] + CCCCCCCC", "values": [{"measurement": "relative permittivity at zero frequency", "setting": "[1]; 288.15 K, x1 = 0.1008", "result": "2.104 ± 0.13"}, {"measurement": "relative permittivity at zero frequency", "setting": "[1]; 288.15 K, x1 = 0.2034", "result": "2.331 ± 0.14"}, {"measurement": "relative permittivity at zero frequency", "setting": "[1]; 288.15 K, x1 = 0.3004", "result": "2.766 ± 0.17"}, {"measurement": "relative permittivity at zero frequency", "setting": "[1]; 288.15 K, x1 = 0.3808", "result": "3.405 ± 0.2"}, {"measurement": "relative permittivity at zero frequency", "setting": "[1]; 288.15 K, x1 = 0.4885", "result": "4.798 ± 0.29"}, {"measurement": "relative permittivity at zero frequency", "setting": "[1]; 288.15 K, x1 = 0.593", "result": "6.675 ± 0.4"}, {"measurement": "relative permittivity at zero frequency", "setting": "[1]; 288.15 K, x1 = 0.6992", "result": "8.743 ± 0.53"}, {"measurement": "relative permittivity at zero frequency", "setting": "[1]; 288.15 K, x1 = 0.7922", "result": "11.143 ± 0.67"}, {"measurement": "relative permittivity at zero frequency", "setting": "[1]; 288.15 K, x1 = 0.8967", "result": "13.734 ± 0.82"}, {"measurement": "relative permittivity at zero frequency", "setting": "[1]; 293.15 K, x1 = 0.1008", "result": "2.1 ± 0.13"}, {"measurement": "relative permittivity at zero frequency", "setting": "[1]; 293.15 K, x1 = 0.2034", "result": "2.321 ± 0.14"}, {"measurement": "relative permittivity at zero frequency", "setting": "[1]; 293.15 K, x1 = 0.3004", "result": "2.731 ± 0.16"}, {"measurement": "relative permittivity at zero frequency", "setting": "[1]; 293.15 K, x1 = 0.3808", "result": "3.32 ± 0.2"}, {"measurement": "relative permittivity at zero frequency", "setting": "[1]; 293.15 K, x1 = 0.4885", "result": "4.601 ± 0.28"}, {"measurement": "relative permittivity at zero frequency", "setting": "[1]; 293.15 K, x1 = 0.593", "result": "6.358 ± 0.38"}, {"measurement": "relative permittivity at zero frequency", "setting": "[1]; 293.15 K, x1 = 0.6992", "result": "8.332 ± 0.5"}, {"measurement": "relative permittivity at zero frequency", "setting": "[1]; 293.15 K, x1 = 0.7922", "result": "10.654 ± 0.64"}, {"measurement": "relative permittivity at zero frequency", "setting": "[1]; 293.15 K, x1 = 0.8967", "result": "13.179 ± 0.79"}, {"measurement": "relative permittivity at zero frequency", "setting": "[1]; 298.15 K, x1 = 0.1008", "result": "2.096 ± 0.13"}, {"measurement": "relative permittivity at zero frequency", "setting": "[1]; 298.15 K, x1 = 0.2034", "result": "2.312 ± 0.14"}, {"measurement": "relative permittivity at zero frequency", "setting": "[1]; 298.15 K, x1 = 0.3004", "result": "2.699 ± 0.16"}, {"measurement": "relative permittivity at zero frequency", "setting": "[1]; 298.15 K, x1 = 0.3808", "result": "3.243 ± 0.2"}, {"measurement": "relative permittivity at zero frequency", "setting": "[1]; 298.15 K, x1 = 0.4885", "result": "4.421 ± 0.27"}, {"measurement": "relative permittivity at zero frequency", "setting": "[1]; 298.15 K, x1 = 0.593", "result": "6.053 ± 0.36"}, {"measurement": "relative permittivity at zero frequency", "setting": "[1]; 298.15 K, x1 = 0.6992", "result": "7.936 ± 0.48"}, {"measurement": "relative permittivity at zero frequency", "setting": "[1]; 298.15 K, x1 = 0.7922", "result": "10.175 ± 0.61"}, {"measurement": "relative permittivity at zero frequency", "setting": "[1]; 298.15 K, x1 = 0.8967", "result": "12.634 ± 0.76"}, {"measurement": "relative permittivity at zero frequency", "setting": "[1]; 303.15 K, x1 = 0.1008", "result": "2.092 ± 0.13"}, {"measurement": "relative permittivity at zero frequency", "setting": "[1]; 303.15 K, x1 = 0.2034", "result": "2.304 ± 0.14"}, {"measurement": "relative permittivity at zero frequency", "setting": "[1]; 303.15 K, x1 = 0.3004", "result": "2.669 ± 0.16"}, {"measurement": "relative permittivity at zero frequency", "setting": "[1]; 303.15 K, x1 = 0.3808", "result": "3.173 ± 0.19"}, {"measurement": "relative permittivity at zero frequency", "setting": "[1]; 303.15 K, x1 = 0.4885", "result": "4.257 ± 0.26"}, {"measurement": "relative permittivity at zero frequency", "setting": "[1]; 303.15 K, x1 = 0.593", "result": "5.774 ± 0.35"}, {"measurement": "relative permittivity at zero frequency", "setting": "[1]; 303.15 K, x1 = 0.6992", "result": "7.559 ± 0.45"}, {"measurement": "relative permittivity at zero frequency", "setting": "[1]; 303.15 K, x1 = 0.7922", "result": "9.712 ± 0.58"}, {"measurement": "relative permittivity at zero frequency", "setting": "[1]; 303.15 K, x1 = 0.8967", "result": "12.103 ± 0.73"}, {"measurement": "relative permittivity at zero frequency", "setting": "[1]; 308.15 K, x1 = 0.1008", "result": "2.088 ± 0.12"}, {"measurement": "relative permittivity at zero frequency", "setting": "[1]; 308.15 K, x1 = 0.2034", "result": "2.297 ± 0.14"}, {"measurement": "relative permittivity at zero frequency", "setting": "[1]; 308.15 K, x1 = 0.3004", "result": "2.643 ± 0.16"}, {"measurement": "relative permittivity at zero frequency", "setting": "[1]; 308.15 K, x1 = 0.3808", "result": "3.111 ± 0.19"}, {"measurement": "relative permittivity at zero frequency", "setting": "[1]; 308.15 K, x1 = 0.4885", "result": "4.109 ± 0.25"}, {"measurement": "relative permittivity at zero frequency", "setting": "[1]; 308.15 K, x1 = 0.593", "result": "5.516 ± 0.33"}, {"measurement": "relative permittivity at zero frequency", "setting": "[1]; 308.15 K, x1 = 0.6992", "result": "7.204 ± 0.43"}, {"measurement": "relative permittivity at zero frequency", "setting": "[1]; 308.15 K, x1 = 0.7922", "result": "9.267 ± 0.56"}, {"measurement": "relative permittivity at zero frequency", "setting": "[1]; 308.15 K, x1 = 0.8967", "result": "11.585 ± 0.69"}, {"measurement": "refractive index", "setting": "[2]; 293.15 K, x1 = 0.1008", "result": "1.3981 ± 0.0005"}, {"measurement": "refractive index", "setting": "[2]; 293.15 K, x1 = 0.2034", "result": "1.3988 ± 0.0005"}, {"measurement": "refractive index", "setting": "[2]; 293.15 K, x1 = 0.3004", "result": "1.3997 ± 0.0005"}, {"measurement": "refractive index", "setting": "[2]; 293.15 K, x1 = 0.3808", "result": "1.4005 ± 0.0005"}, {"measurement": "refractive index", "setting": "[2]; 293.15 K, x1 = 0.4885", "result": "1.4019 ± 0.0005"}, {"measurement": "refractive index", "setting": "[2]; 293.15 K, x1 = 0.593", "result": "1.4033 ± 0.0005"}, {"measurement": "refractive index", "setting": "[2]; 293.15 K, x1 = 0.6992", "result": "1.4047 ± 0.0005"}, {"measurement": "refractive index", "setting": "[2]; 293.15 K, x1 = 0.7922", "result": "1.4063 ± 0.0005"}, {"measurement": "refractive index", "setting": "[2]; 293.15 K, x1 = 0.8967", "result": "1.4082 ± 0.0005"}, {"measurement": "refractive index", "setting": "[2]; 298.15 K, x1 = 0.1008", "result": "1.3965 ± 0.0005"}, {"measurement": "refractive index", "setting": "[2]; 298.15 K, x1 = 0.2034", "result": "1.3973 ± 0.0005"}, {"measurement": "refractive index", "setting": "[2]; 298.15 K, x1 = 0.3004", "result": "1.3982 ± 0.0005"}, {"measurement": "refractive index", "setting": "[2]; 298.15 K, x1 = 0.3808", "result": "1.3991 ± 0.0005"}, {"measurement": "refractive index", "setting": "[2]; 298.15 K, x1 = 0.4885", "result": "1.4004 ± 0.0005"}, {"measurement": "refractive index", "setting": "[2]; 298.15 K, x1 = 0.593", "result": "1.4019 ± 0.0005"}, {"measurement": "refractive index", "setting": "[2]; 298.15 K, x1 = 0.6992", "result": "1.4034 ± 0.0005"}, {"measurement": "refractive index", "setting": "[2]; 298.15 K, x1 = 0.7922", "result": "1.405 ± 0.0005"}, {"measurement": "refractive index", "setting": "[2]; 298.15 K, x1 = 0.8967", "result": "1.407 ± 0.0005"}, {"measurement": "refractive index", "setting": "[2]; 303.15 K, x1 = 0.1008", "result": "1.3937 ± 0.0005"}, {"measurement": "refractive index", "setting": "[2]; 303.15 K, x1 = 0.2034", "result": "1.3946 ± 0.0005"}, {"measurement": "refractive index", "setting": "[2]; 303.15 K, x1 = 0.3004", "result": "1.3955 ± 0.0005"}, {"measurement": "refractive index", "setting": "[2]; 303.15 K, x1 = 0.3808", "result": "1.3964 ± 0.0005"}, {"measurement": "refractive index", "setting": "[2]; 303.15 K, x1 = 0.4885", "result": "1.3979 ± 0.0005"}, {"measurement": "refractive index", "setting": "[2]; 303.15 K, x1 = 0.593", "result": "1.3993 ± 0.0005"}, {"measurement": "refractive index", "setting": "[2]; 303.15 K, x1 = 0.6992", "result": "1.4008 ± 0.0005"}, {"measurement": "refractive index", "setting": "[2]; 303.15 K, x1 = 0.7922", "result": "1.4026 ± 0.0005"}, {"measurement": "refractive index", "setting": "[2]; 303.15 K, x1 = 0.8967", "result": "1.4046 ± 0.0005"}]}]}
